Assay results from patent US20230233569A1 (Revolution Medicines, Inc., priority 2020, published 2023).
Where two headings read alike, the source gives them in different places.

Tests used:
NCI-H358 (K-Ras G12C) = assay: CellTiter-Glo cell viability assay, 5-day treatment; assay type: cell-based; conditions: Homo sapiens, NCI-H358, 120 h, 5-day treatment; read-out: H358 Cell Viability assay data (K-Ras G12C, IC50)
Summary of the method: (§1)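 Seeded cells received test compound by direct dispensing. On day 5 the plates sat at room temperature approximately 30 minutes, then luminescence was measured. Data were normalized to DMSO and curve-fitted with four parameters.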

Capan-1 (K-Ras G12V) = assay: as above; assay type: cell-based; conditions: Homo sapiens, CAPAN-1, 120 h
Summary of the method: as §1

NRAS Q61R = NRAS Q61R (Homo sapiens, UniProt P01111+P62937, Q61R); assay: Disruption of BRAF RBD interaction with Ras (FRET / MOA assay, with Cyclophilin A); assay type: biochemical
Summary of the method: (§2)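 TR-FRET in 25 mM HEPES pH 7.3, 100 mM NaCl, 5 mM MgCl2, 0.1% BSA: 25 μM Cyclophilin A, 12.5 nM His6-Ras-GMPPNP, 50 nM GST-BRAF RBD with compound (10-point 3-fold series from 30 μM), 3 h at 25° C. Anti-His Eu/anti-GST APC added, 1.5 h more; IC50 from decreased FRET ratio versus DMSO.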

NRAS WT = NRAS WT (Homo sapiens, UniProt P01111+P62937); assay: as above; assay type: biochemical
Summary of the method: as §2

NRAS Q61K = NRAS Q61K (Homo sapiens, UniProt P01111+P62937, Q61K); assay: as above; assay type: biochemical
Summary of the method: as §2

KRAS Q61H = KRAS Q61H (Homo sapiens, UniProt P01116+P62937, Q61H); assay: as above; assay type: biochemical
Summary of the method: as §2

KRAS G13C = KRAS G13C (Homo sapiens, UniProt P01116+P62937, G13C); assay: as above; assay type: biochemical
Summary of the method: (§3)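 Cyclophilin A-dependent ternary complex assay. K-Ras loaded with nucleotide; BRAF RBD as effector. Cpd top 30 μM final, 3 h at 25 °C. Readout: TR-FRET ratio, IC50.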

KRAS WT = KRAS WT (Homo sapiens, UniProt P01116+P62937); assay: as above; assay type: biochemical
Summary of the method: as §3

KRAS G12C = KRAS G12C (Homo sapiens, UniProt P01116+P62937, G12C); assay: as above; assay type: biochemical
Summary of the method: as §3

NRAS G12C = NRAS G12C (Homo sapiens, UniProt P01111+P62937, G12C); assay: as above; assay type: biochemical
KRAS G13D = KRAS G13D (Homo sapiens, UniProt P01116+P62937, G13D); assay: as above; assay type: biochemical
Summary of the method: as §3

KRAS G12S = KRAS G12S (Homo sapiens, UniProt P01116+P62937, G12S); assay: as above; assay type: biochemical
Summary of the method: as §3

KRAS G12D = KRAS G12D (Homo sapiens, UniProt P01116+P62937, G12D); assay: as above; assay type: biochemical
Summary of the method: as §3

KRAS G12V = KRAS G12V (Homo sapiens, UniProt P01116+P62937, G12V); assay: as above; assay type: biochemical
Summary of the method: as §3

[1] = 5-day treatment, read-out: Capan-1 Cell Viability assay data (K-Ras G12V, IC50)
[2] = NRAS Q61R, read-out: NRAS Q61R FRET data IC50
[3] = NRAS WT, read-out: NRAS WT FRET data IC50
[4] = NRAS Q61K, read-out: NRAS Q61K FRET data IC50
[5] = KRAS Q61H, read-out: KRAS Q61H FRET data IC50
[6] = read-out: KRAS G13C FRET data, IC50
[7] = KRAS WT, read-out: KRAS WT FRET data IC50
[8] = read-out: KRAS G12C FRET data, IC50
[9] = NRAS G12C, read-out: NRAS G12C FRET data IC50
[10] = KRAS G13D, read-out: KRAS G13D FRET data IC50
[11] = read-out: KRAS G12S FRET data, IC50
[12] = read-out: KRAS G12D FRET data, IC50
[13] = KRAS G12V, read-out: KRAS G12V FRET data IC50
[14] = read-out: Capan-1 Cell Viability assay data (K-Ras G12V, IC50, uM)

KRAS G12V, sequence (P01116 1-169 isoform P01116-2 G12V limits assumed): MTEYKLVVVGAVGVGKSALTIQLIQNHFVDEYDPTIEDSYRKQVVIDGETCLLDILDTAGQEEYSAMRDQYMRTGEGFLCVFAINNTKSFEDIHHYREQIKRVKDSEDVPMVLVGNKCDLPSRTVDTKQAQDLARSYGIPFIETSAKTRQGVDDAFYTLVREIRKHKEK
KRAS G12V, sequence (P62937 whole entry): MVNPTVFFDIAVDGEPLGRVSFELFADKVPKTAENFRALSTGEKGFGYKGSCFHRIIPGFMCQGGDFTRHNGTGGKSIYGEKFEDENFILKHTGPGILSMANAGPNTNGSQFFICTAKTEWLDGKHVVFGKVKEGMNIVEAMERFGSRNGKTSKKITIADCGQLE
NRAS WT, sequence (P01111 whole entry): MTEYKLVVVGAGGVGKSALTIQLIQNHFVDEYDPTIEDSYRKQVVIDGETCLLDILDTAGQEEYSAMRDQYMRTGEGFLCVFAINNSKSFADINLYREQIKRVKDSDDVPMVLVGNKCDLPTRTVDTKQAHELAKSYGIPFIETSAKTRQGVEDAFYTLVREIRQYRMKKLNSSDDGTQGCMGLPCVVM
NRAS WT, sequence (P62937 whole entry): as the sequence (P62937 whole entry) above
NRAS Q61K, sequence (P01111 whole entry Q61K): as the sequence (P01111 whole entry) above, with Q61K counted along it
NRAS Q61K, sequence (P62937 whole entry): as the sequence (P62937 whole entry) above
KRAS G12C, sequence (P01116 1-169 isoform P01116-2 G12C): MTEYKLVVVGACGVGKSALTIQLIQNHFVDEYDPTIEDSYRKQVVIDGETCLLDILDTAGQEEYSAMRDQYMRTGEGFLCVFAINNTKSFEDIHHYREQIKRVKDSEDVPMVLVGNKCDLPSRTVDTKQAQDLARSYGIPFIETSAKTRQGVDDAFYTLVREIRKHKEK
KRAS G12C, sequence (P62937 whole entry): as the sequence (P62937 whole entry) above
KRAS G13C, sequence (P01116 1-169 isoform P01116-2 G13C): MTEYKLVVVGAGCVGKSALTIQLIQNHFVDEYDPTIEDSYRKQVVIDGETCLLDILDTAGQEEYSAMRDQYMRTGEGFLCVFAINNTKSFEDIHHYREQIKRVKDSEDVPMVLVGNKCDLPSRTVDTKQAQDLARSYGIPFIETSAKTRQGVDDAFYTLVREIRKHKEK
KRAS G13C, sequence (P62937 whole entry): as the sequence (P62937 whole entry) above
KRAS G12D, sequence (P01116 1-169 isoform P01116-2 G12D limits assumed): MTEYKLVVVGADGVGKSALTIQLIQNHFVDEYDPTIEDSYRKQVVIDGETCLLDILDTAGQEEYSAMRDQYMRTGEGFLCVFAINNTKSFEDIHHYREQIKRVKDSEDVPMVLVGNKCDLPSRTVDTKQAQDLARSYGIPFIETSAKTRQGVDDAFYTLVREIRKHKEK
KRAS G12D, sequence (P62937 whole entry): as the sequence (P62937 whole entry) above
KRAS Q61H, sequence (P01116 1-169 isoform P01116-2 Q61H limits assumed): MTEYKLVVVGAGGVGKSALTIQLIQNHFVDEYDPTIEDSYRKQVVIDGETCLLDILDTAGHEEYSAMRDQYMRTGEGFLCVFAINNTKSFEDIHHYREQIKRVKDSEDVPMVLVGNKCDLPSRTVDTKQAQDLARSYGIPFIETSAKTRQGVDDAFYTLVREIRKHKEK
KRAS Q61H, sequence (P62937 whole entry): as the sequence (P62937 whole entry) above
KRAS G12S, sequence (P01116 1-169 isoform P01116-2 G12S limits assumed): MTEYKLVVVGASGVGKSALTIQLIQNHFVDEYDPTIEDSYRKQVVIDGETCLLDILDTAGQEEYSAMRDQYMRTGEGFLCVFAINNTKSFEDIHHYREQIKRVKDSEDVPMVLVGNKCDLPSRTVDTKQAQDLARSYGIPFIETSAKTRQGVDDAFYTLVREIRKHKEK
KRAS G12S, sequence (P62937 whole entry): as the sequence (P62937 whole entry) above
NRAS G12C, sequence (P01111 whole entry G12C): as the sequence (P01111 whole entry) above, with G12C counted along it
NRAS G12C, sequence (P62937 whole entry): as the sequence (P62937 whole entry) above
NRAS Q61R, sequence (P01111 whole entry Q61R): as the sequence (P01111 whole entry) above, with Q61R counted along it
NRAS Q61R, sequence (P62937 whole entry): as the sequence (P62937 whole entry) above
KRAS G13D, sequence (P01116 1-169 isoform P01116-2 G13D limits assumed): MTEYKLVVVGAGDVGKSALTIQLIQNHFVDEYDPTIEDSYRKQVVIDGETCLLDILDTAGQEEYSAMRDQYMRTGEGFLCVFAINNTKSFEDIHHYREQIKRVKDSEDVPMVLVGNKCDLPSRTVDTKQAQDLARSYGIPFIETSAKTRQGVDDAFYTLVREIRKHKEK
KRAS G13D, sequence (P62937 whole entry): as the sequence (P62937 whole entry) above
KRAS WT, sequence (P01116 1-169 isoform P01116-2 limits assumed): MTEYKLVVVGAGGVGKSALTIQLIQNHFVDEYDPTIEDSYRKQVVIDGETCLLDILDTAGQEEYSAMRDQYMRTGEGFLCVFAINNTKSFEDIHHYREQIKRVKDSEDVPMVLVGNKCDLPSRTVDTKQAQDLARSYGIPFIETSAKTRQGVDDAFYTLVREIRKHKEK
KRAS WT, sequence (P62937 whole entry): as the sequence (P62937 whole entry) above

SMILES	IC50 (NCI-H358 (K-Ras G12C)) [nM]	IC50 (Capan-1 (K-Ras G12V); [1]) [µM]	IC50 (NRAS Q61R; [2]) [nM]	IC50 (NRAS WT; [3]) [nM]	IC50 (NRAS Q61K; [4]) [nM]	IC50 (KRAS Q61H; [5]) [nM]	IC50 (KRAS G13C; [6]) [nM]	IC50 (KRAS WT; [7]) [nM]	IC50 (KRAS G12C; [8]) [nM]	IC50 (NRAS G12C; [9]) [nM]	IC50 (KRAS G13D; [10]) [nM]	IC50 (KRAS G12S; [11]) [nM]	IC50 (KRAS G12D; [12]) [nM]	IC50 (KRAS G12V; [13]) [nM]	further results
CCn1c(-c2cc(N3CCN(C)CC3)cnc2[C@H](C)OC)c2c3cc(ccc31)-c1cc(O)cc(c1)C[C@H](NC(=O)[C@H](C1CCCC1)N(C)C(=O)[C@H]1OCC[C@H]1c1ccccc1)C(=O)N1CCC[C@H](N1)C(=O)OCC(C)(C)C2 [Example A423]	100 to 1000	0.1 to 1	100 to 1000	100 to 1000	1000 to 10000	100 to 1000	100 to 1000	100 to 1000	100 to 1000	100 to 1000	100 to 1000	100 to 1000	100 to 1000	10 to 100	–
CCn1c(-c2cccnc2[C@H](C)OC)c2c3cc(ccc31)-c1csc(n1)C[C@H](NC(=O)[C@H](C(C)C)N(C)C(=O)N1CCC3(CC1)CN(C)CCO3)C(=O)N1CCC[C@H](N1)C(=O)OCC(C)(C)C2 [Example A433]	10 to 100	0.01 to 0.1	100 to 1000	100 to 1000	100 to 1000	100 to 1000	100 to 1000	100 to 1000	100 to 1000	100 to 1000	100 to 1000	100 to 1000	1000 to 10000	100 to 1000	–
CCn1c(-c2cccnc2[C@H](C)OC)c2c3cc(ccc31)-c1csc(n1)C[C@H](NC(=O)[C@H](C(C)C)N(C)C(=O)N1CC[C@]13CCCN(C)C3)C(=O)N1CCC[C@H](N1)C(=O)OCC(C)(C)C2 [Example A442]	100 to 1000	1 to 10	1000 to 10000	1000 to 10000	1000 to 10000	100 to 1000	1000 to 10000	1000 to 10000	1000 to 10000	1000 to 10000	100 to 1000	1000 to 10000	1000 to 10000	1000 to 10000	–
CCn1c(-c2cccnc2[C@H](C)OC)c2c3cc(ccc31)-c1csc(n1)C[C@H](NC(=O)[C@H](C(C)C)N(C)C(=O)N(C)C1(COC)COC1)C(=O)N1CCC[C@H](N1)C(=O)OCC(C)(C)C2 [Example A455]	100 to 1000	0.1 to 1	100 to 1000	100 to 1000	100 to 1000	100 to 1000	1000 to 10000	100 to 1000	100 to 1000	100 to 1000	1000 to 10000	100 to 1000	1000 to 10000	1000 to 10000	–
CCn1c(-c2cccnc2[C@H](C)OC)c2c3cc(ccc31)-c1csc(n1)C[C@H](NC(=O)[C@H](C(C)C)N(C)C(=O)N1CCN(C(=O)CCN(C)C)CC1)C(=O)N1CCC[C@H](N1)C(=O)OCC(C)(C)C2 [Example A459]	10 to 100	0.1 to 1	10 to 100	10 to 100	10 to 100	10 to 100	10 to 100	10 to 100	10 to 100	10 to 100	10 to 100	10 to 100	100 to 1000	100 to 1000	–
CCn1c(-c2cccnc2[C@H](C)OC)c2c3cc(ccc31)-c1csc(n1)C[C@H](NC(=O)[C@H](C(C)C)N(C)C(=O)[C@@H]1CCN(C)[C@@H]1c1ccccc1)C(=O)N1CCC[C@H](N1)C(=O)OCC(C)(C)C2 [Example A464]	1000 to 10000	–	1000 to 10000	1000 to 10000	1000 to 10000	100 to 1000	1000 to 10000	1000 to 10000	1000 to 10000	1000 to 10000	1000 to 10000	1000 to 10000	1000 to 10000	1000 to 10000	IC50 (Capan-1 (K-Ras G12V); [14]): 1 to 10 µM
CCn1c(-c2cc(C3CCN(C)CC3)cnc2[C@H](C)OC)c2c3cc(ccc31)-c1csc(n1)C[C@H](NC(=O)[C@H](C(C)C)N(C)C(=O)N1CC(C3COC3)C1)C(=O)N1CCC[C@H](N1)C(=O)OCC(C)(C)C2 [Example A465]	< 10	–	10 to 100	10 to 100	10 to 100	10 to 100	10 to 100	10 to 100	10 to 100	10 to 100	100 to 1000	10 to 100	100 to 1000	10 to 100	IC50 (Capan-1 (K-Ras G12V); [14]): < 0.01 µM
CCn1c(-c2cccnc2[C@H](C)OC)c2c3cc(ccc31)-c1csc(n1)C[C@H](NC(=O)[C@H](C(C)C)N(C)C(=O)N1C[C@@H]3CN(C)CC[C@@H]31)C(=O)N1CCC[C@H](N1)C(=O)OCC(C)(C)C2 [Example A481]	10 to 100	0.01 to 0.1	1000 to 10000	100 to 1000	100 to 1000	100 to 1000	1000 to 10000	1000 to 10000	100 to 1000	100 to 1000	1000 to 10000	1000 to 10000	1000 to 10000	1000 to 10000	–
CCn1c(-c2cccnc2[C@H](C)OC)c2c3cc(ccc31)-c1csc(n1)C[C@H](NC(=O)[C@H](C(C)C)N(C)C(=O)N1CC3(C1)CS(=O)(=O)CCN3C)C(=O)N1CCC[C@H](N1)C(=O)OCC(C)(C)C2 [Example A482]	100 to 1000	0.1 to 1	1000 to 10000	1000 to 10000	100 to 1000	100 to 1000	1000 to 10000	1000 to 10000	1000 to 10000	100 to 1000	1000 to 10000	1000 to 10000	> 10000	1000 to 10000	–
CCn1c(-c2cccnc2[C@H](C)OC)c2c3cc(ccc31)-c1csc(n1)C[C@H](NC(=O)[C@H](C(C)C)N(C)C(=O)N1CCCC[C@@H](N(C)C)C1)C(=O)N1CCC[C@H](N1)C(=O)OCC(C)(C)C2 [Example A492]	10 to 100	0.1 to 1	100 to 1000	100 to 1000	100 to 1000	10 to 100	100 to 1000	100 to 1000	100 to 1000	100 to 1000	100 to 1000	100 to 1000	100 to 1000	100 to 1000	–
CCn1c(-c2cccnc2[C@H](C)OC)c2c3cc(ccc31)-c1csc(n1)C[C@H](NC(=O)[C@H](C(C)C)N(C)C(=O)N1CCC[C@@H](N(C)C)CC1)C(=O)N1CCC[C@H](N1)C(=O)OCC(C)(C)C2 [Example A494]	10 to 100	0.01 to 0.1	–	–	–	–	–	–	–	–	–	–	–	–	IC50 (NRAS Q61R; NRAS Q61R FRET data IC50, NRAS Q61R): 10 to 100 nM; IC50 (NRAS WT; NRAS WT FRET data IC50, NRAS WT): 10 to 100 nM; IC50 (NRAS Q61K; NRAS Q61K FRET data IC50, NRAS Q61K): 10 to 100 nM; IC50 (KRAS Q61H; KRAS Q61H FRET data IC50, KRAS Q61H): 10 to 100 nM; IC50 (KRAS G13C; KRAS G13C FRET data, IC50): 100 to 1000 nM; IC50 (KRAS WT; KRAS WT FRET data IC50, KRAS WT): 10 to 100 nM; IC50 (KRAS G12C; KRAS G12C FRET data, IC50): 10 to 100 nM; IC50 (NRAS G12C; NRAS G12C FRET data IC50, NRAS G12C): 10 to 100 nM; IC50 (KRAS G13D; KRAS G13D FRET data IC50, KRAS G13D): 100 to 1000 nM; IC50 (KRAS G12S; KRAS G12S FRET data, IC50): 10 to 100 nM; IC50 (KRAS G12D; KRAS G12D FRET data, IC50): 10 to 100 nM; IC50 (KRAS G12V; KRAS G12V FRET data IC50, KRAS G12V): 100 to 1000 nM
